Data: PubChem BioAssay AID1259407 (Chemical Carcinogenesis Research Information System (CCRIS), 2018)
Active and inactive are the calls of the source. The rule behind the calls is not given here.

Tested on: CCRIS mutagenicity, Ames/micronucleus/aberration tests
Assay: CCRIS mutagenicity studies
[1] = Test System: AMES SALMONELLA TYPHIMURIUM, Strain/Indicator: TA98, Metabolic Activation: NONE, Method: PREINCUBATION
[2] = Test System: AMES SALMONELLA TYPHIMURIUM, Strain/Indicator: TA100, Metabolic Activation: NONE, Method: PREINCUBATION
[3] = Test System: AMES SALMONELLA TYPHIMURIUM, Strain/Indicator: TA102, Metabolic Activation: NONE, Method: PREINCUBATION
[4] = Test System: AMES SALMONELLA TYPHIMURIUM, Strain/Indicator: TA98, Metabolic Activation: S-9, Method: STANDARD PLATE
[5] = Test System: AMES SALMONELLA TYPHIMURIUM, Strain/Indicator: TA100, Metabolic Activation: NONE, Method: STANDARD PLATE
[6] = Test System: AMES SALMONELLA TYPHIMURIUM, Strain/Indicator: TA100, Metabolic Activation: S-9, Method: STANDARD PLATE

For `C=C1CC(=O)O1`, the mutagenic call [1] was “inactive; negative”, the mutagenic call (Test System: AMES SALMONELLA TYPHIMURIUM, Strain/Indicator: TA98, Metabolic Activation: RAT LIVER S-9, PHENOBARBITAL AND BETA-NAPHTHOFLAVONE, Method: PREINCUBATION) was “inactive; negative” and the mutagenic call [2] was “inactive; negative”. For the same compound, the mutagenic call (Test System: AMES SALMONELLA TYPHIMURIUM, Strain/Indicator: TA100, Metabolic Activation: RAT LIVER S-9, PHENOBARBITAL AND BETA-NAPHTHOFLAVONE, Method: PREINCUBATION) was “inactive; negative”, the mutagenic call [3] was “inactive; negative” and the mutagenic call (Test System: AMES SALMONELLA TYPHIMURIUM, Strain/Indicator: TA102, Metabolic Activation: RAT LIVER S-9, PHENOBARBITAL AND BETA-NAPHTHOFLAVONE, Method: PREINCUBATION) was “inactive; negative”. The mutagenic call (Test System: AMES SALMONELLA TYPHIMURIUM, Strain/Indicator: TA104, Metabolic Activation: NONE, Method: PREINCUBATION) was “inactive; negative”, the mutagenic call (Test System: AMES SALMONELLA TYPHIMURIUM, Strain/Indicator: TA104, Metabolic Activation: RAT LIVER S-9, PHENOBARBITAL AND BETA-NAPHTHOFLAVONE, Method: PREINCUBATION) was “inactive; negative” and the mutagenic call (Test System: AMES SALMONELLA TYPHIMURIUM, Strain/Indicator: TA1535, Metabolic Activation: NONE, Method: PREINCUBATION) was “inactive; negative”. For the same compound, the mutagenic call (Test System: AMES SALMONELLA TYPHIMURIUM, Strain/Indicator: TA1535, Metabolic Activation: RAT LIVER S-9, PHENOBARBITAL AND BETA-NAPHTHOFLAVONE, Method: PREINCUBATION) was “inactive; negative”, the mutagenic call (Test System: AMES SALMONELLA TYPHIMURIUM, Strain/Indicator: TA1537, Metabolic Activation: NONE, Method: PREINCUBATION) was “inactive; negative” and the mutagenic call (Test System: AMES SALMONELLA TYPHIMURIUM, Strain/Indicator: TA1537, Metabolic Activation: RAT LIVER S-9, PHENOBARBITAL AND BETA-NAPHTHOFLAVONE, Method: PREINCUBATION) was “inactive; negative”. For the same compound, the mutagenic call (Test System: E.COLI, Strain/Indicator: WP2UVRA/PKM101, Metabolic Activation: NONE, Method: PREINCUBATION) was “inactive; negative”, the mutagenic call (Test System: E.COLI, Strain/Indicator: WP2UVRA/PKM101, Metabolic Activation: RAT LIVER S-9, PHENOBARBITAL AND BETA-NAPHTHOFLAVONE, Method: PREINCUBATION) was “inactive; negative” and the mutagenic call (Test System: E.COLI, Strain/Indicator: WP2UVRA, Metabolic Activation: NONE, Method: PREINCUBATION) was “inactive; negative”. For the same compound, the mutagenic call (Test System: E.COLI, Strain/Indicator: WP2UVRA, Metabolic Activation: RAT LIVER S-9, PHENOBARBITAL AND BETA-NAPHTHOFLAVONE, Method: PREINCUBATION) was “inactive; negative”.
For `O=[N+]([O-])c1ccnc2ccccc12`, the mutagenic call (Test System: AMES SALMONELLA TYPHIMURIUM, Strain/Indicator: TA1538, Metabolic Activation: RAT, LIVER, S-9, KC500 OR PHENOBARBITAL, Method: LIQUID SUSPENSION) was “active; positive” and the mutagenic call (Test System: UDS RODENT PRIMARY CELLS, Strain/Indicator: THY INCORP (NON-S-PHASE), Metabolic Activation: NONE, Method: AUTORADIOGRAPHY) was “active; positive”.
In the case of `Cc1ccc2nsc(NC(=O)C(Cl)(Cl)Cl)c2c1`, the mutagenic call (Test System: AMES SALMONELLA TYPHIMURIUM, Strain/Indicator: TA98, Metabolic Activation: NONE, Method: STANDARD PLATE) is reported as “active; positive”, the mutagenic call [4] is reported as “active; positive” and the mutagenic call [5] is reported as “active; positive”. The mutagenic call [6] was “active; positive”, the mutagenic call (Test System: AMES SALMONELLA TYPHIMURIUM, Strain/Indicator: TA1535, Metabolic Activation: NONE, Method: STANDARD PLATE) was “inactive; negative” and the mutagenic call (Test System: AMES SALMONELLA TYPHIMURIUM, Strain/Indicator: TA1535, Metabolic Activation: S-9, Method: STANDARD PLATE) was “inactive; negative”. The mutagenic call (Test System: AMES SALMONELLA TYPHIMURIUM, Strain/Indicator: TA1537, Metabolic Activation: NONE, Method: STANDARD PLATE) was “inactive; negative” and the mutagenic call (Test System: AMES SALMONELLA TYPHIMURIUM, Strain/Indicator: TA1537, Metabolic Activation: S-9, Method: STANDARD PLATE) was “inactive; negative”.
With `O=[N+]([O-])c1ccc(-c2ccccc2)cc1` the mutagenic call (Test System: AMES SALMONELLA TYPHIMURIUM, Strain/Indicator: TA98(1,8-DNP6), Metabolic Activation: NONE) was “inactive; negative”, the mutagenic call (Test System: AMES SALMONELLA TYPHIMURIUM, Strain/Indicator: TA98(1,8-DNP6), Metabolic Activation: NONE, Method: STANDARD PLATE) was “active; positive” and the mutagenic call (Test System: AMES SALMONELLA TYPHIMURIUM, Strain/Indicator: TA98(1,8-DNP6), Metabolic Activation: RAT, LIVER, S-9, AROCLOR 1254) was “inactive; negative”. The mutagenic call (Test System: AMES SALMONELLA TYPHIMURIUM, Strain/Indicator: TA98(NR), Metabolic Activation: NONE) was “inactive; negative”, the mutagenic call (Test System: AMES SALMONELLA TYPHIMURIUM, Strain/Indicator: TA98(NR), Metabolic Activation: NONE, Method: STANDARD PLATE) was “inactive; negative” and the mutagenic call (Test System: AMES SALMONELLA TYPHIMURIUM, Strain/Indicator: TA98(NR), Metabolic Activation: RAT, LIVER, S-9, AROCLOR 1254) was “inactive; negative”. For the same compound, the mutagenic call (Test System: AMES SALMONELLA TYPHIMURIUM, Strain/Indicator: TA98, Metabolic Activation: NONE) was “inactive; negative”, the mutagenic call [1] was “active; positive” and the mutagenic call (Test System: AMES SALMONELLA TYPHIMURIUM, Strain/Indicator: TA98, Metabolic Activation: RAT, LIVER, S-9, AROCLOR 1254) was “inactive; negative”. The mutagenic call (Test System: AMES SALMONELLA TYPHIMURIUM, Strain/Indicator: TA98, Metabolic Activation: RAT, LIVER, S-9, PCB (10%), Method: PREINCUBATION) was “active; positive”, the mutagenic call (Test System: AMES SALMONELLA TYPHIMURIUM, Strain/Indicator: TA98, Metabolic Activation: RAT, LIVER, S-9, PCB, Method: PREINCUBATION) was “active; positive” and the mutagenic call (Test System: AMES SALMONELLA TYPHIMURIUM, Strain/Indicator: TA98, Metabolic Activation: RAT, LIVER, S-100 (CYTOSOL), Method: PREINCUBATION) was “active; positive”. The mutagenic call (Test System: AMES SALMONELLA TYPHIMURIUM, Strain/Indicator: TA98, Metabolic Activation: RAT, LIVER, S-100 (MICROSOMES), Method: PREINCUBATION) was “active; positive”, the mutagenic call [4] was “active; positive” and the mutagenic call (Test System: AMES SALMONELLA TYPHIMURIUM, Strain/Indicator: TA100(NR), Metabolic Activation: NONE) was “inactive; negative”. For the same compound, the mutagenic call (Test System: AMES SALMONELLA TYPHIMURIUM, Strain/Indicator: TA100(NR), Metabolic Activation: RAT, LIVER, S-9, AROCLOR 1254) was “inactive; negative”, the mutagenic call (Test System: AMES SALMONELLA TYPHIMURIUM, Strain/Indicator: TA100, Metabolic Activation: NONE) was “inactive; negative” and the mutagenic call [5] was “active; positive”. The mutagenic call (Test System: AMES SALMONELLA TYPHIMURIUM, Strain/Indicator: TA100, Metabolic Activation: RAT, LIVER, S-9, AROCLOR 1254) was “inactive; negative”, the mutagenic call [6] was “active; positive” and the mutagenic call (Test System: AMES SALMONELLA TYPHIMURIUM, Strain/Indicator: TA104, Metabolic Activation: NONE) was “inactive; negative”. For the same compound, the mutagenic call (Test System: AMES SALMONELLA TYPHIMURIUM, Strain/Indicator: TA104, Metabolic Activation: RAT, LIVER, S-9, AROCLOR 1254) was “inactive; negative”, the mutagenic call (Test System: CHINESE HAMSTER OVARY, Strain/Indicator: CHO-K1-BH4 (HGPRT), Metabolic Activation: NONE, Method: SUSPENSION/PLATE) was “inactive; negative” and the mutagenic call (Test System: CHINESE HAMSTER OVARY, Strain/Indicator: CHO-K1-BH4 (HGPRT), Metabolic Activation: RAT, LIVER, S-9, AROCLOR, Method: SUSPENSION/PLATE) was “inactive; negative”. The mutagenic call (Test System: UDS RAT HEPATOCYTES, Strain/Indicator: THY INCORP, Metabolic Activation: NONE, Method: AUTORADIOGRAPHY (SERUM-FREE MEDIA)) was “active; positive”.
With `CC(C)(N=O)[N+](=O)[O-]` the mutagenic call [1] was “active; positive”, the mutagenic call (Test System: AMES SALMONELLA TYPHIMURIUM, Strain/Indicator: TA98, Metabolic Activation: RAT, LIVER, S-9, AROCLOR, Method: PREINCUBATION) was “inactive; negative” and the mutagenic call [2] was “inactive; negative”. The mutagenic call (Test System: AMES SALMONELLA TYPHIMURIUM, Strain/Indicator: TA100, Metabolic Activation: RAT, LIVER, S-9, AROCLOR, Method: PREINCUBATION) was “inactive; negative”, the mutagenic call [3] was “inactive; negative” and the mutagenic call (Test System: AMES SALMONELLA TYPHIMURIUM, Strain/Indicator: TA102, Metabolic Activation: RAT, LIVER, S-9, AROCLOR, Method: PREINCUBATION) was “inactive; negative”.
`COC(=O)CCN(N=O)C(N)=O` was tested, and the mutagenic call (Test System: E. COLI B, Strain/Indicator: H/R30R, Metabolic Activation: NONE) was “active; positive” and the mutagenic call (Test System: E. COLI B, Strain/Indicator: HS30R, Metabolic Activation: NONE) was “active; positive”.
`COC(=O)[C@@H]1CS[C@@H]2C(Cl)=C(Cl)C(=O)N21` was tested, and the mutagenic call [5] was “active; positive”.
